Data taken from the NIST ThermoML archive (doi:10.1021/acs.jced.6b00536).
Where “and” joins values, the source holds several entries; their conditions need not be identical. Equal values may be shown once. ± gives the expanded uncertainty stated by the source.

Conditions: Gas, Frequency=0.05 MHz, Single path-length method

FC(F)(F)C(F)(F)C(F)(F)F [octafluoropropane]
Conditions	speed of sound
251.1 K, 62.4 kPa	106.76 ± 0.1 m/s
251.1 K, 71.8 kPa	106.39 ± 0.1 m/s
251.1 K, 80.5 kPa	106.08 ± 0.1 m/s
251.1 K, 89.7 kPa	105.72 ± 0.1 m/s
251.1 K, 102 kPa	105.24 ± 0.1 m/s
251.1 K, 118.2 kPa	104.61 ± 0.1 m/s
251.1 K, 143.1 kPa	103.57 ± 0.1 m/s
251.1 K, 167.2 kPa	102.56 ± 0.1 m/s
256.3 K, 63.7 kPa	107.91 ± 0.1 m/s
256.3 K, 73.3 kPa	107.57 ± 0.1 m/s
256.3 K, 82.2 kPa	107.26 ± 0.1 m/s
256.3 K, 91.7 kPa	106.91 ± 0.1 m/s
256.3 K, 104.3 kPa	106.47 ± 0.1 m/s
256.3 K, 120.9 kPa	105.85 ± 0.1 m/s
256.3 K, 146.4 kPa	104.86 ± 0.1 m/s
256.3 K, 171.2 kPa	103.89 ± 0.1 m/s
256.3 K, 198.4 kPa	102.79 ± 0.1 m/s
256.3 K, 221.3 kPa	101.83 ± 0.1 m/s
261.6 K, 65.1 kPa	109.07 ± 0.1 m/s
261.6 K, 74.9 kPa	108.75 ± 0.1 m/s
261.6 K, 84 kPa	108.44 ± 0.1 m/s
261.6 K, 93.7 kPa	108.11 ± 0.1 m/s
261.6 K, 106.6 kPa	107.67 ± 0.1 m/s
261.6 K, 123.6 kPa	107.08 ± 0.1 m/s
261.6 K, 149.8 kPa	106.13 ± 0.1 m/s
261.6 K, 175.2 kPa	105.21 ± 0.1 m/s
261.6 K, 203.2 kPa	104.16 ± 0.1 m/s
261.6 K, 226.7 kPa	103.22 ± 0.1 m/s
261.6 K, 233.4 kPa	102.97 ± 0.1 m/s
261.6 K, 253.9 kPa	102.14 ± 0.1 m/s
266.8 K, 66.4 kPa	110.2 ± 0.1 m/s
266.8 K, 76.4 kPa	109.87 ± 0.1 m/s
266.8 K, 85.7 kPa	109.58 ± 0.1 m/s
266.8 K, 95.7 kPa	109.25 ± 0.1 m/s
266.8 K, 108.8 kPa	108.83 ± 0.1 m/s
266.8 K, 126.3 kPa	108.28 ± 0.1 m/s
266.8 K, 153 kPa	107.37 ± 0.1 m/s
266.8 K, 179.2 kPa	106.48 ± 0.1 m/s
266.8 K, 207.8 kPa	105.46 ± 0.1 m/s
266.8 K, 232.2 kPa	104.58 ± 0.1 m/s
266.8 K, 238.9 kPa	104.32 ± 0.1 m/s
266.8 K, 260 kPa	103.52 ± 0.1 m/s
272.1 K, 67.8 kPa	111.33 ± 0.09 m/s
272.1 K, 78 kPa	111.03 ± 0.1 m/s
272.1 K, 87.5 kPa	110.74 ± 0.1 m/s
272.1 K, 97.7 kPa	110.44 ± 0.1 m/s
272.1 K, 111.1 kPa	110.02 ± 0.1 m/s
272.1 K, 128.9 kPa	109.46 ± 0.1 m/s and 109.47 ± 0.1 m/s
272.1 K, 156.4 kPa	108.62 ± 0.1 m/s and 108.61 ± 0.1 m/s
272.1 K, 183.1 kPa	107.74 ± 0.1 m/s
272.1 K, 212.6 kPa	106.77 ± 0.1 m/s
272.1 K, 237.5 kPa	105.93 ± 0.1 m/s
272.1 K, 244.5 kPa	105.69 ± 0.1 m/s
272.1 K, 266.3 kPa	104.92 ± 0.1 m/s
277.4 K, 69.1 kPa	112.44 ± 0.09 m/s
277.4 K, 79.6 kPa	112.15 ± 0.09 m/s
277.4 K, 89.3 kPa	111.87 ± 0.09 m/s
277.4 K, 99.7 kPa	111.58 ± 0.1 m/s
277.4 K, 113.4 kPa	111.18 ± 0.1 m/s
277.4 K, 131.6 kPa	110.66 ± 0.1 m/s
277.4 K, 159.7 kPa	109.81 ± 0.1 m/s
277.4 K, 187.1 kPa	108.99 ± 0.1 m/s
277.4 K, 217.3 kPa	108.05 ± 0.1 m/s
277.4 K, 242.9 kPa	107.24 ± 0.1 m/s
277.4 K, 250.1 kPa	107.02 ± 0.1 m/s
277.4 K, 272.5 kPa	106.29 ± 0.1 m/s
282.7 K, 70.4 kPa	113.54 ± 0.09 m/s
282.7 K, 81.2 kPa	113.28 ± 0.09 m/s
282.7 K, 91 kPa	113 ± 1 m/s
282.7 K, 101.6 kPa	112.71 ± 0.09 m/s
282.7 K, 115.6 kPa	112.32 ± 0.09 m/s
282.7 K, 134.3 kPa	111.82 ± 0.1 m/s
282.7 K, 163 kPa	111.01 ± 0.1 m/s
282.7 K, 191.1 kPa	110.22 ± 0.1 m/s
282.7 K, 222 kPa	109.31 ± 0.1 m/s
282.7 K, 248.3 kPa	108.54 ± 0.1 m/s
282.7 K, 255.6 kPa	108.32 ± 0.1 m/s
282.7 K, 278.6 kPa	107.62 ± 0.1 m/s
287.9 K, 71.8 kPa	114.63 ± 0.09 m/s
287.9 K, 82.7 kPa	114.36 ± 0.09 m/s
287.9 K, 92.8 kPa	114.11 ± 0.09 m/s
287.9 K, 103.6 kPa	113.84 ± 0.09 m/s
287.9 K, 117.9 kPa	113.46 ± 0.09 m/s
287.9 K, 136.9 kPa	112.97 ± 0.09 m/s
287.9 K, 166.3 kPa	112.19 ± 0.1 m/s
287.9 K, 195 kPa	111.42 ± 0.1 m/s
287.9 K, 226.7 kPa	110.56 ± 0.1 m/s
287.9 K, 253.6 kPa	109.81 ± 0.1 m/s
287.9 K, 261.1 kPa	109.59 ± 0.1 m/s
287.9 K, 284.7 kPa	108.91 ± 0.1 m/s
293.2 K, 73.1 kPa	115.72 ± 0.09 m/s
293.2 K, 84.2 kPa	115.45 ± 0.09 m/s
293.2 K, 84.3 kPa	115.46 ± 0.09 m/s
293.2 K, 94.5 kPa	115.2 ± 0.1 m/s
293.2 K, 94.6 kPa	115.21 ± 0.09 m/s
293.2 K, 105.6 kPa	114.93 ± 0.09 m/s and 114.94 ± 0.09 m/s
293.2 K, 120.1 kPa	114.57 ± 0.09 m/s
293.2 K, 139.6 kPa	114.1 ± 0.1 m/s
293.2 K, 169.6 kPa	113.36 ± 0.09 m/s
293.2 K, 198.9 kPa	112.61 ± 0.1 m/s
293.2 K, 231.3 kPa	111.79 ± 0.1 m/s
293.2 K, 231.4 kPa	111.79 ± 0.1 m/s
293.2 K, 258.8 kPa	111.04 ± 0.1 m/s
293.2 K, 258.9 kPa	111.05 ± 0.1 m/s
293.2 K, 266.6 kPa	110.85 ± 0.1 m/s
293.2 K, 266.7 kPa	110.86 ± 0.1 m/s
293.2 K, 290.7 kPa	110.18 ± 0.1 m/s
293.2 K, 290.8 kPa	110.19 ± 0.1 m/s
298.4 K, 74.5 kPa	116.78 ± 0.09 m/s
298.4 K, 85.8 kPa	116.53 ± 0.09 m/s
298.4 K, 96.3 kPa	116.29 ± 0.09 m/s
298.4 K, 107.6 kPa	116.05 ± 0.09 m/s
298.4 K, 122.4 kPa	115.7 ± 0.1 m/s
298.4 K, 142.2 kPa	115.21 ± 0.09 m/s
298.4 K, 172.8 kPa	114.5 ± 0.1 m/s
298.4 K, 202.9 kPa	113.8 ± 0.1 m/s
298.4 K, 235.9 kPa	112.97 ± 0.1 m/s
298.4 K, 264.2 kPa	112.28 ± 0.1 m/s
298.4 K, 272.1 kPa	112.08 ± 0.1 m/s
298.4 K, 296.8 kPa	111.46 ± 0.1 m/s
303.7 K, 75.8 kPa	117.86 ± 0.09 m/s
303.7 K, 87.4 kPa	117.61 ± 0.09 m/s
303.7 K, 98.1 kPa	117.39 ± 0.09 m/s
303.7 K, 109.5 kPa	117.14 ± 0.09 m/s
303.7 K, 124.7 kPa	116.78 ± 0.09 m/s
303.7 K, 144.9 kPa	116.33 ± 0.09 m/s
303.7 K, 176.2 kPa	115.66 ± 0.09 m/s
303.7 K, 206.7 kPa	114.96 ± 0.09 m/s
303.7 K, 240.6 kPa	114.17 ± 0.1 m/s
303.7 K, 269.4 kPa	113.49 ± 0.09 m/s
303.7 K, 277.6 kPa	113.32 ± 0.09 m/s
308.9 K, 77.1 kPa	118.9 ± 0.1 m/s
308.9 K, 88.9 kPa	118.66 ± 0.09 m/s
308.9 K, 99.8 kPa	118.44 ± 0.09 m/s
308.9 K, 111.5 kPa	118.19 ± 0.09 m/s
308.9 K, 127 kPa	117.87 ± 0.09 m/s
308.9 K, 147.5 kPa	117.44 ± 0.09 m/s
308.9 K, 179.4 kPa	116.75 ± 0.09 m/s
308.9 K, 210.6 kPa	116.08 ± 0.09 m/s
308.9 K, 245.2 kPa	115.33 ± 0.09 m/s
308.9 K, 274.7 kPa	114.68 ± 0.1 m/s
308.9 K, 283 kPa	114.5 ± 0.1 m/s
314.1 K, 78.5 kPa	119.93 ± 0.09 m/s
314.1 K, 90.4 kPa	119.69 ± 0.09 m/s
314.1 K, 101.6 kPa	119.47 ± 0.09 m/s
314.1 K, 113.4 kPa	119.24 ± 0.09 m/s
314.1 K, 129.2 kPa	118.93 ± 0.09 m/s
314.1 K, 150.2 kPa	118.52 ± 0.09 m/s
314.1 K, 182.7 kPa	117.85 ± 0.09 m/s
314.1 K, 214.5 kPa	117.21 ± 0.09 m/s
314.1 K, 249.8 kPa	116.47 ± 0.09 m/s
314.1 K, 279.9 kPa	115.84 ± 0.09 m/s
314.1 K, 288.4 kPa	115.67 ± 0.09 m/s
319.4 K, 79.8 kPa	120.96 ± 0.09 m/s
319.4 K, 92 kPa	120.74 ± 0.09 m/s
319.4 K, 103.3 kPa	120.52 ± 0.09 m/s
319.4 K, 115.4 kPa	120.29 ± 0.09 m/s
319.4 K, 131.4 kPa	119.98 ± 0.09 m/s
319.4 K, 152.8 kPa	119.58 ± 0.09 m/s
319.4 K, 185.9 kPa	118.95 ± 0.09 m/s
319.4 K, 218.4 kPa	118.33 ± 0.09 m/s
319.4 K, 254.4 kPa	117.62 ± 0.09 m/s
319.4 K, 285.1 kPa	117.02 ± 0.09 m/s
319.4 K, 293.8 kPa	116.85 ± 0.09 m/s
324.6 K, 81.2 kPa	121.98 ± 0.09 m/s
324.6 K, 93.5 kPa	121.75 ± 0.09 m/s
324.6 K, 105.1 kPa	121.56 ± 0.09 m/s
324.6 K, 117.4 kPa	121.32 ± 0.09 m/s
324.6 K, 133.7 kPa	121.03 ± 0.09 m/s
324.6 K, 155.4 kPa	120.64 ± 0.09 m/s
324.6 K, 189.2 kPa	120.02 ± 0.09 m/s
324.6 K, 222.3 kPa	119.43 ± 0.09 m/s
324.6 K, 259 kPa	118.74 ± 0.09 m/s
324.6 K, 290.3 kPa	118.16 ± 0.09 m/s
324.6 K, 299.2 kPa	117.99 ± 0.09 m/s
